The test system of this test is Caerulein-induced pancreatitis. The test can be described thus: Pretreatment with ADM inducers in caerulein-induced pancreatitis: histology (ADM) and CD45 infiltration. Format: in vivo, mice. The following applies: 40 mg/kg b.i.d oral gavage before and during Caerulein; 24 hours after end of Caerulein injections. An excerpt:
Epigenetic modifiers: Recently, the emerging role of epigenetic regulation has led to the development of a wide spectrum of small molecules targeting selectively bromodomain and extra-terminal (BET) protein family which are currently under evaluation in preclinical model of hematological malignancies and solid tumors (Asangani et al., 2014; Delmore et al., 2011; Filippakopoulos et al., 2010). Leveraging the persistent chromatin modifications induced by an acute inflammatory event, the possibility of limiting the detrimental effects of repeated pancreatitis was tested through the administration of INCB054329, a BRD4 inhibitor currently in phase I-II clinical studies in patients with advanced malignancies (Falchook et al., 2019).
Induction of acute pancreatitis. […] Control mice received injections of pyrogen-free PBS. Mice were examined daily for health conditions and sacrificed at the indicated time points by CO2 asphyxiation and cervical dislocation.
DAPI nuclear counterstaining was also performed.

“Also recorded” adds a separate entry of the source.

On to `Cc1noc(C)c1-c1ccc2[nH]c(=O)n3c2c1OC[C@@H]3c1ccccn1` [INCB054329], for which the “ADM induction (histological evaluation)” value is on record as “massive induction of ADM; also recorded: significant ADM induction” and the “inflammatory infiltration (CD45 immunostaining)” value is “dramatic reduction of inflammatory infiltration; also recorded: strong suppression of inflammation”.

Source of the values: patent US20230190718A1, “METHODS FOR THE TREATMENT OF PANCREATITIS AND PREVENTION OF PANCREATIC CANCER” (BOARD OF REGENTS, THE UNIVERSITY OF TEXAS SYSTEM, priority 2020, published 2023).
